Test results: the kinase profiling compilation of Christmann-Franck et al. (2016)

How the values were obtained:
Assay in all cases: radiometric filter-binding kinase assay
MAPKAPK2 (human) = MAPKAPK2 (human) (UniProt P49137)
TBK1 (human) = TBK1 (human) (UniProt Q9UHD2)
[1] = test system: PAK2 (human), Q13177 [T402E]
INSRR (human) = INSRR (human) (UniProt P14616)
GCK (human) = GCK (human) (UniProt Q12851)
PAK6 (human) = PAK6 (human) (UniProt Q9NQU5)
CSNK2A1 (human) = CSNK2A1 (human) (UniProt P68400)
MYLK (human) = MYLK (human) (UniProt Q15746)
MAP2K1 (human) = MAP2K1 (human) (UniProt Q02750)
EPHB4 (human) = EPHB4 (human) (UniProt P54760)
STK3 (human) = STK3 (human) (UniProt Q13188)
SRPK1 (human) = SRPK1 (human) (UniProt Q96SB4)
MAP3K9 (human) = MAP3K9 (human) (UniProt P80192)
MARK3 (human) = MARK3 (human) (UniProt P27448)
MAP2K2 (human) = MAP2K2 (human) (UniProt P36507)
Sequence of MAP2K2 (human) (P36507 whole entry, looked up): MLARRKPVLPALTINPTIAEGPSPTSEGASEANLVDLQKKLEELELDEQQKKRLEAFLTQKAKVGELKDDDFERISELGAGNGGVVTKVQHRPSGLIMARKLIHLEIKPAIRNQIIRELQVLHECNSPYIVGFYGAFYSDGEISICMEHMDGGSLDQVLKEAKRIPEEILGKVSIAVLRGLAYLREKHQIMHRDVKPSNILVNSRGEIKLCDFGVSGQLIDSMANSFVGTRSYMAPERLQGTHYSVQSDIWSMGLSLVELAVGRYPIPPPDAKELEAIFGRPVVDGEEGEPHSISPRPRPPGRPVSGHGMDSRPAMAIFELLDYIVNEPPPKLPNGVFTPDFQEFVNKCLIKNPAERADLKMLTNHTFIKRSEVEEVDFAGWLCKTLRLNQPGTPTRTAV

PIM3 (human) = PIM3 (human) (UniProt Q86V86)
IKBKB (human) = IKBKB (human) (UniProt O14920)
Sequence of IKBKB (human) (O14920 whole entry, looked up): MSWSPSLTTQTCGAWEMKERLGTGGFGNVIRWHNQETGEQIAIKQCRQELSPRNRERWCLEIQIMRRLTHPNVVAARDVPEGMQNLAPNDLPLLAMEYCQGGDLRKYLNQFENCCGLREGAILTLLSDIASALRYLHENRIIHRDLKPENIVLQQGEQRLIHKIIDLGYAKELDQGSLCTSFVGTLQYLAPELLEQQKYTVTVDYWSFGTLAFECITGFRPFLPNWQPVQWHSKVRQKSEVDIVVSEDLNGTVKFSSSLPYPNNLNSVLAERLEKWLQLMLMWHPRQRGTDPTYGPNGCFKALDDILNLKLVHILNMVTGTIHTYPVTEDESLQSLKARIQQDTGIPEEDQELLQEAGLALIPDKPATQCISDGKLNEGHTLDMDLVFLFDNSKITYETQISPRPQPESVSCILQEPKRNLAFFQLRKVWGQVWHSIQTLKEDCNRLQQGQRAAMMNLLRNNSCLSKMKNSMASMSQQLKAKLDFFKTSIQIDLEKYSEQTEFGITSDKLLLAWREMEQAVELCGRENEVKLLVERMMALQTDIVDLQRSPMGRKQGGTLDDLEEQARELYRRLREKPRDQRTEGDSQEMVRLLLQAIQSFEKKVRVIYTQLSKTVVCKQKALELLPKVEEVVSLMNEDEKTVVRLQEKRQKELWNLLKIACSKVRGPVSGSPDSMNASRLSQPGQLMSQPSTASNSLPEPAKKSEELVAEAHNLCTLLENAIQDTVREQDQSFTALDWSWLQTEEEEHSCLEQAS

EPHB1 (human) = EPHB1 (human) (UniProt P54762)
Sequence of EPHB1 (human) (P54762 whole entry, looked up): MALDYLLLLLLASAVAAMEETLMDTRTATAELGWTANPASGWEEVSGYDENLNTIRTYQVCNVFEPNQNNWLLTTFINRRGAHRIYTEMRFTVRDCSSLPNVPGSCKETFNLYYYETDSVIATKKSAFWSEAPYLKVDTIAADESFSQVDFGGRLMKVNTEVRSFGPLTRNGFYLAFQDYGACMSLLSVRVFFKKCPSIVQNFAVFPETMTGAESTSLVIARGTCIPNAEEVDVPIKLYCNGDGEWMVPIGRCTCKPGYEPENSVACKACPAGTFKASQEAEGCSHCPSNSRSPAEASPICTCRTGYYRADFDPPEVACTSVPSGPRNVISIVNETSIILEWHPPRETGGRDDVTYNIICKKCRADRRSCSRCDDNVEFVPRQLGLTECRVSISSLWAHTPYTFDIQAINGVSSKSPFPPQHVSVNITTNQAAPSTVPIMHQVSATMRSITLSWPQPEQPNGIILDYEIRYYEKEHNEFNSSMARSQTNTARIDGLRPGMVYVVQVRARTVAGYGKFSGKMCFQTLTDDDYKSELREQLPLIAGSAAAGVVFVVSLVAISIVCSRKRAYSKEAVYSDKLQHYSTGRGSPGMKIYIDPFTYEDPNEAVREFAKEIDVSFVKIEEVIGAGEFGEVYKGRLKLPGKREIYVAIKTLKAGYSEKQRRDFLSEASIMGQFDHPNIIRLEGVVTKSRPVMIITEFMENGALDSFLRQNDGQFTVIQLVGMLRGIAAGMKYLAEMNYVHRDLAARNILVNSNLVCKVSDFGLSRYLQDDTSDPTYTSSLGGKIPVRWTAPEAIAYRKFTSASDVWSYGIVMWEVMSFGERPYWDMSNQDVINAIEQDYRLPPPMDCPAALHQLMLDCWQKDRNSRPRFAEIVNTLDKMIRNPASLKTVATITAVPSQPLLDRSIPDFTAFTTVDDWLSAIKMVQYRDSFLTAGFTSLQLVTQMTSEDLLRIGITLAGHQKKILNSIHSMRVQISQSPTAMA

MKNK2 (human) = MKNK2 (human) (UniProt Q9HBH9)
[2] = test system: RPS6KB1 (human), P23443 [T412E]
PIM1 (human) = PIM1 (human) (UniProt P11309)
DAPK1 (human) = DAPK1 (human) (UniProt P53355)
RPS6KA5 KD1 KD2 (human) = RPS6KA5 KD1 KD2 (human) (UniProt O75582)
MAPK9 (human) = MAPK9 (human) (UniProt P45984)
EEF2K (human) = EEF2K (human) (UniProt O00418)
NEK6 (human) = NEK6 (human) (UniProt Q9HC98)
PIM2 (human) = PIM2 (human) (UniProt Q9P1W9)
MAP3K5 (human) = MAP3K5 (human) (UniProt Q99683)
Sequence of MAP3K5 (human) (Q99683 whole entry, looked up): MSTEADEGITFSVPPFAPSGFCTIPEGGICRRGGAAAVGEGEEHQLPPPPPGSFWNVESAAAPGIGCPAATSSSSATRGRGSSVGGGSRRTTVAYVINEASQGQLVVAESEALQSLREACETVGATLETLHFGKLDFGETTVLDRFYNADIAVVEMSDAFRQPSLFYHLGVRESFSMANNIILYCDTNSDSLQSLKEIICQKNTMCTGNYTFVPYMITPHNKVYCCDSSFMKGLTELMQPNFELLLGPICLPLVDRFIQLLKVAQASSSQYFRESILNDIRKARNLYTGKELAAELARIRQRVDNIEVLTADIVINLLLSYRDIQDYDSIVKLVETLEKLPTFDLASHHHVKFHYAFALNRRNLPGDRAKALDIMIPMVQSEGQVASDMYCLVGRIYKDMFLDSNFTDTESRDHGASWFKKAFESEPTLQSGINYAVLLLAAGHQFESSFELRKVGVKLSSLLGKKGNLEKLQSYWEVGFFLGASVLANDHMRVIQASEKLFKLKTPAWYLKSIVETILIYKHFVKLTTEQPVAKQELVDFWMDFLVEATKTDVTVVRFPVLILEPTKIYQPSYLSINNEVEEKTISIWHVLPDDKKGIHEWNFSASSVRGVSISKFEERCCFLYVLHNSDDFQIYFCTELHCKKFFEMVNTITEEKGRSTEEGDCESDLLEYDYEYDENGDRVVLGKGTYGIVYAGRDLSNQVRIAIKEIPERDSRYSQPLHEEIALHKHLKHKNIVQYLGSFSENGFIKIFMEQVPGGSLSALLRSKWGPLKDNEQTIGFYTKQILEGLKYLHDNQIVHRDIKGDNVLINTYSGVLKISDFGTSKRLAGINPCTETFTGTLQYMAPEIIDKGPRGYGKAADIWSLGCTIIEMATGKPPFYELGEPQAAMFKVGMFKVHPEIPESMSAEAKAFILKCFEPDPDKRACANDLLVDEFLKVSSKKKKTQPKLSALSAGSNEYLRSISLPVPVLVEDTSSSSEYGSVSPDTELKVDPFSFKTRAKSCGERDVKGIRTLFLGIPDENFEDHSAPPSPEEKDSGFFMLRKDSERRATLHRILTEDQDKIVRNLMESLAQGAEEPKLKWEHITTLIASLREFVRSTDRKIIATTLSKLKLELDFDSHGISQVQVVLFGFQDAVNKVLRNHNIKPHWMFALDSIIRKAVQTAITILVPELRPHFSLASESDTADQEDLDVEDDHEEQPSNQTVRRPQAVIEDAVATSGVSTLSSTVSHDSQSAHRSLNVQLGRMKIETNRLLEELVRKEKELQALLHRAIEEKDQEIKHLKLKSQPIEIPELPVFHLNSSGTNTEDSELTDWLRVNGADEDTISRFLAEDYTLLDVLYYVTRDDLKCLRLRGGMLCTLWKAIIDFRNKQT

EPHA4 (human) = EPHA4 (human) (UniProt P54764)
MARK4 (human) = MARK4 (human) (UniProt Q96L34)
YES1 (human) = YES1 (human) (UniProt P07947)
Sequence of YES1 (human) (P07947 whole entry, looked up): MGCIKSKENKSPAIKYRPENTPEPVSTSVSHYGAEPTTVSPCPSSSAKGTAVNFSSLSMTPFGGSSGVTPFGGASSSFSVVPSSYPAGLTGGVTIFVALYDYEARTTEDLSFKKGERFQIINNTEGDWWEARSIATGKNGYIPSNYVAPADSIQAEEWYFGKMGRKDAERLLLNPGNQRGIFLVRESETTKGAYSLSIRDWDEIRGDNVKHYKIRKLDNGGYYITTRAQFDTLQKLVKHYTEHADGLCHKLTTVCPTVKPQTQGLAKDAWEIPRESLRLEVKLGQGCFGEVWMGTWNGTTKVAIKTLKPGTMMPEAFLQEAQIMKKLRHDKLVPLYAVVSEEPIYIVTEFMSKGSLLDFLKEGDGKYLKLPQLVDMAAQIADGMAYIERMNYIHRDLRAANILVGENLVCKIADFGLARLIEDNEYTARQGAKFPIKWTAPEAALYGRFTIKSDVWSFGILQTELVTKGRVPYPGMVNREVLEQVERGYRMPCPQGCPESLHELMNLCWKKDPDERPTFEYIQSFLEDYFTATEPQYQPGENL

TTK (human) = TTK (human) (UniProt P33981)
Sequence of TTK (human) (P33981 whole entry, looked up): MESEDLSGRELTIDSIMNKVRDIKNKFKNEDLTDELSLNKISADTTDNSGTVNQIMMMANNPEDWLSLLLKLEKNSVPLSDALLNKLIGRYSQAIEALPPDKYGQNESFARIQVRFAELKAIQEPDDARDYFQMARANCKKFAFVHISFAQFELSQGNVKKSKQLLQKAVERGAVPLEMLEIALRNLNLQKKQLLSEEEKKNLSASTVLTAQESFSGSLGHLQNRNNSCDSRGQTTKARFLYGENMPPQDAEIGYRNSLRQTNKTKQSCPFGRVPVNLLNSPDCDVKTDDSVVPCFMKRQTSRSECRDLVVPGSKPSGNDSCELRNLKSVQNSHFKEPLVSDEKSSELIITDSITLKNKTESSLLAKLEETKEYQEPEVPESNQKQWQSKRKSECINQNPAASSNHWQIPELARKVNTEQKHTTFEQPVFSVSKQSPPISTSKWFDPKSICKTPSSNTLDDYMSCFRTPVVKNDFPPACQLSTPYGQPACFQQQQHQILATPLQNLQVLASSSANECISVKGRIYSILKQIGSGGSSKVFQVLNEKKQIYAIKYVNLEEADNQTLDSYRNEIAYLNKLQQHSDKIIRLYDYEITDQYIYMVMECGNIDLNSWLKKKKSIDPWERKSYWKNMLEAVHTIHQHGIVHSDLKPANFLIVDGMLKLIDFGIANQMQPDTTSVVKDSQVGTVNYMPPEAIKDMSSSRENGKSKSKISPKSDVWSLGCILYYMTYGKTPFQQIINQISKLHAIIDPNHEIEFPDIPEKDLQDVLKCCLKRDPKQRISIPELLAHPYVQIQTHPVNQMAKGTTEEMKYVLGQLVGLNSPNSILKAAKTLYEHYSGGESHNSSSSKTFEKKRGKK

BTK (human) = BTK (human) (UniProt Q06187)
CDK2 CCNA2 (human) = CDK2 CCNA2 (human) (UniProt P20248+P24941)
PKN2 (human) = PKN2 (human) (UniProt Q16513)
CHEK1 (human) = CHEK1 (human) (UniProt O14757)

SMILES: O=C(Nc1ccccc1-c1cn2c(CN3CCNCC3)csc2n1)c1cnc2ccccc2n1
- residual activity (MAPKAPK2 (human); compound 0.1 µM): 90%
- residual activity (MAPKAPK2 (human); compound 1.0 µM): 92%
- residual activity (MAPKAPK2 (human); compound 10.0 µM): 59%
- residual activity (TBK1 (human); compound 0.1 µM): 97%
- residual activity (TBK1 (human); compound 1.0 µM): 91%
- residual activity (TBK1 (human); compound 10.0 µM): 56%
- residual activity ([1]; compound 1.0 µM): 107%
- residual activity ([1]; compound 10.0 µM): 108%
- residual activity (INSRR (human); compound 0.1 µM): 73%
- residual activity (INSRR (human); compound 1.0 µM): 77%
- residual activity (INSRR (human); compound 10.0 µM): 53%
- residual activity (GCK (human); compound 1.0 µM): 102%
- residual activity (GCK (human); compound 10.0 µM): 99%
- residual activity (PAK6 (human); compound 0.1 µM): 101%
- residual activity (PAK6 (human); compound 1.0 µM): 92%
- residual activity (PAK6 (human); compound 10.0 µM): 87%
- residual activity (CSNK2A1 (human); compound 0.1 µM): 90%
- residual activity (CSNK2A1 (human); compound 1.0 µM): 102%
- residual activity (CSNK2A1 (human); compound 10.0 µM): 77%
- residual activity (MYLK (human); compound 0.1 µM): 82%
- residual activity (MYLK (human); compound 1.0 µM): 27%
- residual activity (MYLK (human); compound 10.0 µM): 10%
- residual activity (MAP2K1 (human); compound 0.1 µM): 91%
- residual activity (MAP2K1 (human); compound 1.0 µM): 95%
- residual activity (MAP2K1 (human); compound 10.0 µM): 87%
- residual activity (EPHB4 (human); compound 1.0 µM): 96%
- residual activity (EPHB4 (human); compound 10.0 µM): 103%
- residual activity (STK3 (human); compound 0.1 µM): 85%
- residual activity (STK3 (human); compound 1.0 µM): 96%
- residual activity (STK3 (human); compound 10.0 µM): 92%
- residual activity (SRPK1 (human); compound 0.1 µM): 94%
- residual activity (SRPK1 (human); compound 1.0 µM): 92%
- residual activity (SRPK1 (human); compound 10.0 µM): 86%
- residual activity (MAP3K9 (human); compound 1.0 µM): 92%
- residual activity (MAP3K9 (human); compound 10.0 µM): 40%
- residual activity (MARK3 (human); compound 0.1 µM): 100%
- residual activity (MARK3 (human); compound 1.0 µM): 108%
- residual activity (MARK3 (human); compound 10.0 µM): 99%
- residual activity (MAP2K2 (human); compound 1.0 µM): 109%
- residual activity (MAP2K2 (human); compound 10.0 µM): 90%
- residual activity (PIM3 (human); compound 0.1 µM): 95%
- residual activity (PIM3 (human); compound 1.0 µM): 55%
- residual activity (PIM3 (human); compound 10.0 µM): 24%
- residual activity (IKBKB (human); compound 0.1 µM): 84%
- residual activity (IKBKB (human); compound 1.0 µM): 93%
- residual activity (IKBKB (human); compound 10.0 µM): 84%
- residual activity (EPHB1 (human); compound 1.0 µM): 102%
- residual activity (EPHB1 (human); compound 10.0 µM): 88%
- residual activity (MKNK2 (human); compound 0.1 µM): 90%
- residual activity (MKNK2 (human); compound 1.0 µM): 92%
- residual activity (MKNK2 (human); compound 10.0 µM): 96%
- residual activity ([2]; compound 0.1 µM): 86%
- residual activity ([2]; compound 1.0 µM): 111%
- residual activity ([2]; compound 10.0 µM): 61%
- residual activity (PIM1 (human); compound 0.1 µM): 40%
- residual activity (PIM1 (human); compound 1.0 µM): 18%
- residual activity (PIM1 (human); compound 10.0 µM): 10%
- residual activity (DAPK1 (human); compound 1.0 µM): 68%
- residual activity (DAPK1 (human); compound 10.0 µM): 25%
- residual activity (RPS6KA5 KD1 KD2 (human); compound 0.1 µM): 94%
- residual activity (RPS6KA5 KD1 KD2 (human); compound 1.0 µM): 90%
- residual activity (RPS6KA5 KD1 KD2 (human); compound 10.0 µM): 68%
- residual activity (MAPK9 (human); compound 0.1 µM): 101%
- residual activity (MAPK9 (human); compound 1.0 µM): 93%
- residual activity (MAPK9 (human); compound 10.0 µM): 87%
- residual activity (EEF2K (human); compound 0.1 µM): 102%
- residual activity (EEF2K (human); compound 1.0 µM): 106%
- residual activity (EEF2K (human); compound 10.0 µM): 117%
- residual activity (NEK6 (human); compound 0.1 µM): 84%
- residual activity (NEK6 (human); compound 1.0 µM): 108%
- residual activity (NEK6 (human); compound 10.0 µM): 83%
- residual activity (PIM2 (human); compound 0.1 µM): 90%
- residual activity (PIM2 (human); compound 1.0 µM): 95%
- residual activity (PIM2 (human); compound 10.0 µM): 78%
- residual activity (MAP3K5 (human); compound 1.0 µM): 98%
- residual activity (MAP3K5 (human); compound 10.0 µM): 100%
- residual activity (EPHA4 (human); compound 1.0 µM): 78%
- residual activity (EPHA4 (human); compound 10.0 µM): 76%
- residual activity (MARK4 (human); compound 1.0 µM): 110%
- residual activity (MARK4 (human); compound 10.0 µM): 85%
- residual activity (YES1 (human); compound 0.1 µM): 69%
- residual activity (YES1 (human); compound 1.0 µM): 82%
- residual activity (YES1 (human); compound 10.0 µM): 80%
- residual activity (TTK (human); compound 1.0 µM): 85%
- residual activity (TTK (human); compound 10.0 µM): 68%
- residual activity (BTK (human); compound 0.1 µM): 88%
- residual activity (BTK (human); compound 1.0 µM): 99%
- residual activity (BTK (human); compound 10.0 µM): 79%
- residual activity (CDK2 CCNA2 (human); compound 0.1 µM): 88%
- residual activity (CDK2 CCNA2 (human); compound 1.0 µM): 100%
- residual activity (CDK2 CCNA2 (human); compound 10.0 µM): 115%
- residual activity (PKN2 (human); compound 0.1 µM): 90%
- residual activity (PKN2 (human); compound 1.0 µM): 103%
- residual activity (PKN2 (human); compound 10.0 µM): 104%
- residual activity (CHEK1 (human); compound 0.1 µM): 86%
- residual activity (CHEK1 (human); compound 1.0 µM): 98%
- residual activity (CHEK1 (human); compound 10.0 µM): 96%

SMILES: Nc1cccc2c1CN(C1CCC(=O)NC1=O)C2=O (stereo unspecified)
- residual activity (MAPKAPK2 (human); compound 1.0 µM): 79%
- residual activity (MAPKAPK2 (human); compound 10.0 µM): 92%
- residual activity (TBK1 (human); compound 1.0 µM): 95%
- residual activity (TBK1 (human); compound 10.0 µM): 102%
- residual activity ([1]; compound 1.0 µM): 101%
- residual activity ([1]; compound 10.0 µM): 103%
- residual activity (INSRR (human); compound 1.0 µM): 102%
- residual activity (INSRR (human); compound 10.0 µM): 109%
- residual activity (GCK (human); compound 1.0 µM): 103%
- residual activity (GCK (human); compound 10.0 µM): 114%
- residual activity (PAK6 (human); compound 1.0 µM): 102%
- residual activity (PAK6 (human); compound 10.0 µM): 104%
- residual activity (CSNK2A1 (human); compound 1.0 µM): 106%
- residual activity (CSNK2A1 (human); compound 10.0 µM): 93%
- residual activity (MYLK (human); compound 1.0 µM): 94%
- residual activity (MYLK (human); compound 10.0 µM): 94%
- residual activity (MAP2K1 (human); compound 1.0 µM): 90%
- residual activity (MAP2K1 (human); compound 10.0 µM): 92%
- residual activity (EPHB4 (human); compound 1.0 µM): 91%
- residual activity (EPHB4 (human); compound 10.0 µM): 99%
- residual activity (STK3 (human); compound 1.0 µM): 102%
- residual activity (STK3 (human); compound 10.0 µM): 101%
- residual activity (SRPK1 (human); compound 1.0 µM): 104%
- residual activity (SRPK1 (human); compound 10.0 µM): 104%
- residual activity (MAP3K9 (human); compound 1.0 µM): 99%
- residual activity (MAP3K9 (human); compound 10.0 µM): 99%
- residual activity (MARK3 (human); compound 1.0 µM): 91%
- residual activity (MARK3 (human); compound 10.0 µM): 94%
- residual activity (MAP2K2 (human); compound 1.0 µM): 83%
- residual activity (MAP2K2 (human); compound 10.0 µM): 81%
- residual activity (PIM3 (human); compound 1.0 µM): 101%
- residual activity (PIM3 (human); compound 10.0 µM): 103%
- residual activity (IKBKB (human); compound 1.0 µM): 100%
- residual activity (IKBKB (human); compound 10.0 µM): 106%
- residual activity (EPHB1 (human); compound 1.0 µM): 115%
- residual activity (EPHB1 (human); compound 10.0 µM): 126%
- residual activity (MKNK2 (human); compound 1.0 µM): 80%
- residual activity (MKNK2 (human); compound 10.0 µM): 89%
- residual activity ([2]; compound 1.0 µM): 94%
- residual activity ([2]; compound 10.0 µM): 93%
- residual activity (PIM1 (human); compound 1.0 µM): 93%
- residual activity (PIM1 (human); compound 10.0 µM): 87%
- residual activity (DAPK1 (human); compound 1.0 µM): 95%
- residual activity (DAPK1 (human); compound 10.0 µM): 104%
- residual activity (RPS6KA5 KD1 KD2 (human); compound 1.0 µM): 91%
- residual activity (MAPK9 (human); compound 1.0 µM): 100%
- residual activity (MAPK9 (human); compound 10.0 µM): 102%
- residual activity (EEF2K (human); compound 1.0 µM): 94%
- residual activity (EEF2K (human); compound 10.0 µM): 82%
- residual activity (NEK6 (human); compound 1.0 µM): 105%
- residual activity (NEK6 (human); compound 10.0 µM): 96%
- residual activity (PIM2 (human); compound 1.0 µM): 98%
- residual activity (MAP3K5 (human); compound 1.0 µM): 102%
- residual activity (MAP3K5 (human); compound 10.0 µM): 101%
- residual activity (EPHA4 (human); compound 1.0 µM): 110%
- residual activity (EPHA4 (human); compound 10.0 µM): 124%
- residual activity (MARK4 (human); compound 10.0 µM): 90%
- residual activity (YES1 (human); compound 1.0 µM): 102%
- residual activity (YES1 (human); compound 10.0 µM): 102%
- residual activity (TTK (human); compound 1.0 µM): 104%
- residual activity (TTK (human); compound 10.0 µM): 118%
- residual activity (BTK (human); compound 1.0 µM): 104%
- residual activity (BTK (human); compound 10.0 µM): 107%
- residual activity (CDK2 CCNA2 (human); compound 1.0 µM): 96%
- residual activity (CDK2 CCNA2 (human); compound 10.0 µM): 87%
- residual activity (PKN2 (human); compound 1.0 µM): 93%
- residual activity (PKN2 (human); compound 10.0 µM): 88%
- residual activity (CHEK1 (human); compound 1.0 µM): 94%
- residual activity (CHEK1 (human); compound 10.0 µM): 82%
